Common to all, as to assay type: biochemical
In assay [1] the target is T1, HLE (human leukocyte elastase) (Homo sapiens, UniProt P08246).
T1 sequence (P08246 30-267): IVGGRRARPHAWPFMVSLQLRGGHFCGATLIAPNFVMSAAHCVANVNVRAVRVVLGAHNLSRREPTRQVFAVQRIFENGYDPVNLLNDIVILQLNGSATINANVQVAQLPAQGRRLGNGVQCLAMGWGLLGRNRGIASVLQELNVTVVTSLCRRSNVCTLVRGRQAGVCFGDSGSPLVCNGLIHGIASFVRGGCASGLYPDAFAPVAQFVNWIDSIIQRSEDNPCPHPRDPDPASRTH
As to the kind of experiment: Inhibition of HLE by desmosine-like peptidyl carbamates, steady state kinetics (Dixon plot, Lineweaver-Burk slope replot). How it is done:
^c Lines contained linear regression analysis correlations of >0.950.
^d Ki values determined from LineweaverBurk slope replots. Slope
were obtained from lines with linear regression analysis correlations of
^a Ki value was determined by steady state kinetics.
(§1) These studies are conducted to show the activities of some of the compounds of this invention as inhibitors of various forms of the enzyme elastase.

Assay [2] addresses PPE (porcine pancreatic elastase) (Sus scrofa, UniProt P00772). As to the kind of experiment: Inhibition of PPE by peptidyl carbamates. The following applies: Ex. 67 table, N.I. = no inhibition at I/E = 100. How it is done:
as §1
^c N.I. refers to no inhibition at I/E = 100.

The next assay deals with enzyme elastase. As to the kind of experiment: Inhibition of the enzyme elastase, Ki / inhibitor dissociation constants. The following applies: p-nitrophenyl at P1 replaced by N-phenylthiotetrazole.
[3] abbreviates: Table 1, variations in P4, Dixon plot, linear regression correlations >0.950, read-out: Ki value (μM) Dixon.
Setting [4] is: Table 1, variations in P4, Lineweaver-Burk slope replots, correlations >0.990, read-out: Ki value (μM) Replot.
[5] abbreviates: Ki values (μM) Dixon, Table 2, variations in P3, Dixon plot, linear regression correlations >0.950.
[6] abbreviates: Ki values (μM) Replot, Table 2, variations in P3, Lineweaver-Burk slope replots, correlations >0.990.
[7] abbreviates: Table 2, variations in P3, Dixon plot, linear regression correlations >0.950, read-out: Ki values (μM) Dixon.
Setting [8] is: Table 2, variations in P3, Lineweaver-Burk slope replots, correlations >0.990, read-out: Ki values (μM) Replot.

Here are results for 18 compounds from patent US5008245A (University of Kentucky Research Foundation, priority 1988, dated 1991).

The Ki is the equilibrium dissociation constant of an inhibitor or competing ligand from its target.

Read-outs that look alike come from different tables or passages of the source.

Sequence of PPE (porcine pancreatic elastase) (P00772 27-266): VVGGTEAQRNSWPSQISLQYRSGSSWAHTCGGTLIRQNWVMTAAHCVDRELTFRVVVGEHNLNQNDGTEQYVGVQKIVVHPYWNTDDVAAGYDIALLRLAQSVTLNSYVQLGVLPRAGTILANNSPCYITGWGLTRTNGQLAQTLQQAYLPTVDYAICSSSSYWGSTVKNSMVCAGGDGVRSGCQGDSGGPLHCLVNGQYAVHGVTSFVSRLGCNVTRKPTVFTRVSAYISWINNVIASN

In the case of `COC(=O)CCC(=O)NC(CCCCNC(=O)c1ccccc1)C(=O)NC(C)C(=O)N1CCCC1C(=O)CN(C(=O)Oc1ccc([N+](=O)[O-])cc1)C(C)C` (single isomer, unassigned) [Compound 45a, p-Nitrophenyl N-[Methoxysuccinyl-(Nε -benzoyl)lysylalanylprolylmethyl]-N-isopropylcarbamate], the Ki amounted to 0.73 µM in assay [1] (setting [3]) and 0.38 µM in assay [1] (setting [4]). For the same compound, the “Ki (μM) PPE” value in assay [2] (variations at P4) was “N.I”.
On the same counts, the results for `COC(=O)CCC(=O)NC(CCCCNC(=O)OCc1ccccc1)C(=O)NC(C)C(=O)N1CCCC1C(=O)CN(C(=O)Oc1ccc([N+](=O)[O-])cc1)C(C)C` (single isomer, unassigned) [Compound 44a, p-Nitrophenyl N-[Methoxysuccinyl-(Nε -carbobenzoxy)lysylalanylprolylmethyl]-N-isopropylcarbamate] are 0.56 µM, 0.47 µM and “N.I”.
On the same counts, the results for “p-Nitrophenyl N-[Methoxysuccinyl-(Nδ -benzoyl)ornithylalanylprolylmethyl]-N-isopropylcarbamate [Compound 47b]” are 10 µM, 17.7 µM and “N.I”.
Regarding `COC(=O)CCC(=O)N[C@@H](C)C(=O)N[C@@H](CCCNC(=O)c1ccccc1)C(=O)N1CCC[C@@H]1C(=O)CN(C(=O)Oc1ccc([N+](=O)[O-])cc1)C(C)C` [Compound 51b], the Ki worked out at 104 µM in assay [1] (setting [5]) and 100 µM in assay [1] (setting [6]). The “Ki (μM) PPE” value in assay [2] (variations at P3) was “N.I”.
“p-Nitrophenyl N-[Methoxysuccinyl-(Nδ -benzoyl)ornithylalanylprolylmethyl]-N-isopropylcarbamate [Compound 47a]”: the Ki stood at 0.65 µM in assay [1] (setting [3]) and 0.19 µM in assay [1] (setting [4]). In assay [2] (variations at P4), the “Ki (μM) PPE” value is listed as “N.I”.
In the case of `COC(=O)CCC(=O)NC(CCCNC(=O)OCc1ccccc1)C(=O)NC(C)C(=O)N1CCCC1C(=O)CN(C(=O)Oc1ccc([N+](=O)[O-])cc1)C(C)C` (single isomer, unassigned) [Compound 46a, p-Nitrophenyl N-[Methoxysuccinyl-(Nδ -carbobenzoxy)ornithylalanylprolylmethyl]-N-isopropylcarbamate], the Ki in assay [1] (Ex. 67 table, variations at P4, read-out: Ki (μM) HLE) came out at 0.65 µM; in assay [1] (setting [3]), 0.43 µM; in assay [1] (setting [4]), 0.36 µM. For the same compound, the “Ki (μM) PPE” value in assay [2] (variations at P4) is on record as “N.I”.
On to `COC(=O)CCC(=O)NC(C)C(=O)NC(CCCCNC(=O)OCc1ccccc1)C(=O)N1CCCC1C(=O)CN(C(=O)Sc1nnnn1-c1ccccc1)C(C)C` (stereo not drawn) [PC5, S-(1-Phenyl-5-tetrazoyl)-N-[methoxysuccinyl-alanyl-(N6-carbonbenzoxyl)lysylprolylmethyl]-N-isopropyl thiocarbamate], for which the Ki on enzyme elastase amounted to 0.02 µM.
Consider `COC(=O)CCC(=O)NC(CCCCNC(=O)OCc1ccccc1)C(=O)NC(C)C(=O)N1CCCC1C(=O)CN(C(=O)Oc1ccc([N+](=O)[O-])cc1)C(C)C` (single isomer, unassigned) [Compound 44b, p-Nitrophenyl N-[Methoxysuccinyl-(Nε -carbobenzoxy)lysylalanylprolylmethyl]-N-isopropylcarbamate], for which the Ki in assay [1] (setting [3]) is 7.3 µM; in assay [1] (setting [4]), 7.63 µM. Further, the “Ki (μM) PPE” value in assay [2] (variations at P4) is reported as “N.I”.
Turning to `COC(=O)CCC(=O)NC(C)C(=O)NC(CCCNC(=O)c1ccccc1)C(=O)N1CCCC1C(=O)CN(C(=O)Oc1ccc([N+](=O)[O-])cc1)C(C)C` (stereo not shown) [Compound 51a], the results for the inhibitory constant (Ki) in assay [1] (setting [7]), in assay [1] (setting [8]) and in assay [2] (variations at P3) were 5.33 µM, 2.14 µM and 14.3 µM, respectively.
For “p-Nitrophenyl N-[Methoxysuccinylalanyl-Nδ -carbobenzoxy)ornithylprolylmethyl]-N-isopropylcarbamate [Compound 50a]”, in that order: 0.75 µM, 1.05 µM and 8.65 µM.
“p-Nitrophenyl N-[Methoxysuccinyl-(Nδ -carbobenzoxy)lysylprolylmethyl]-N-isopropylcarbamate [Compound 48a]”: the Ki in assay [1] (setting [7]) was found to be 1.1 µM; in assay [1] (setting [8]), 0.22 µM; in assay [2] (variations at P3) it was 3.4 µM.
With `COC(=O)CCC(=O)N[C@@H](C)C(=O)N[C@@H](CCCCNC(=O)c1ccccc1)C(=O)N1CCC[C@H]1C(=O)CN(C(=O)Oc1ccc([N+](=O)[O-])cc1)C(C)C` [Compound 49a], the Ki worked out at 1.6 µM in assay [1] (setting [7]), 0.31 µM in assay [1] (setting [8]) and 3.8 µM in assay [2] (variations at P3).
At enzyme elastase, `COC(=O)CCC(=O)NC(CCCNC(=O)OCc1ccccc1)C(=O)NC(C)C(=O)N1CCCC1C(=O)CN(C(=O)Sc1nnnn1-c1ccccc1)C(C)C` (stereo not drawn) [PC6, S-(1-Phenyl-5-tetrazoyl)-N-[methoxysuccinyl-Nδ-carbobenzoxyl) ornithyl alanyl prolyl methyl]-N-isopropyl thiocarbamate] had a Ki of 0.003 µM.
Take `COC(=O)CCC(=O)NC(CCCNC(=O)OCc1ccccc1)C(=O)NC(C)C(=O)N1CCCC1C(=O)CN(C(=O)Oc1ccc([N+](=O)[O-])cc1)C(C)C` (single isomer, unassigned) [Compound 46b, p-Nitrophenyl N-[Methoxysuccinyl-(Nδ -carbobenzoxy)ornithylalanylprolylmethyl]-N-isopropylcarbamate]: the Ki in assay [1] (setting [3]) came to 8.8 µM; in assay [1] (setting [4]) it was 7.95 µM. In addition, the “Ki (μM) PPE” value in assay [2] (variations at P4) is “N.I”.
For the compound `COC(=O)CCC(=O)NC(CCCCNC(=O)c1ccccc1)C(=O)NC(C)C(=O)N1CCCC1C(=O)CN(C(=O)Oc1ccc([N+](=O)[O-])cc1)C(C)C` (single isomer, unassigned) [Compound 45b, p-Nitrophenyl N-[Methoxysuccinyl-(Nε -benzoyl)lysylalanylprolylmethyl]-N-isopropylcarbamate], the inhibition constant (Ki) in assay [1] (setting [3]) was 3.7 µM; in assay [1] (setting [4]) it was 3.13 µM. Besides, the “Ki (μM) PPE” value in assay [2] (variations at P4) is listed as “N.I”.
On to `COC(=O)CCC(=O)N[C@@H](C)C(=O)N[C@@H](CCCCNC(=O)OCc1ccccc1)C(=O)N1CCC[C@@H]1C(=O)CN(C(=O)Oc1ccc([N+](=O)[O-])cc1)C(C)C` [Compound 48b], for which the Ki worked out at 11.3 µM in assay [1] (Ki (μM) HLE, Ex. 67 table, variations at P3); 20.4 µM in assay [1] (setting [5]); 11.3 µM in assay [1] (setting [6]). The “Ki (μM) PPE” value in assay [2] (variations at P3) is “N.I”.
Turning to `COC(=O)CCC(=O)N[C@@H](C)C(=O)N[C@@H](CCCCNC(=O)c1ccccc1)C(=O)N1CCC[C@H]1C(=O)CN(C(=O)Oc1ccc([N+](=O)[O-])cc1)C(C)C` [Compound 49b], the Ki in assay [1] (setting [7]) stood at 34 µM; in assay [1] (setting [8]), 38.5 µM. Moreover, the “Ki (μM) PPE” value in assay [2] (variations at P3) is recorded as “N.I”.
For `COC(=O)CCC(=O)NC(C)C(=O)NC(CCCNC(=O)OCc1ccccc1)C(=O)N1CCCC1C(=O)CN(C(=O)Oc1ccc([N+](=O)[O-])cc1)C(C)C` (stereo not shown) [Compound 50b, p-Nitrophenyl N-[Methoxysuccinylalanyl-(Nδ -carbobenzoxy)ornithylprolymethyl]-N-isopropylcarbamate], in that order: 22.2 µM, 19.2 µM and “N.I”.
